Data reported in ChEMBL document CHEMBL1143795, “Synthesis and antimalarial activity of new 1,12-bis(N,N'-acetamidinyl)dodecane derivatives” (Bioorg Med Chem Lett, 2007).

Columns and labels:
[1] = test system: Plasmodium falciparum; test: Antimalarial activity against Plasmodium falciparum Nigerian; format: functional, organism-based
[2] = test system: Plasmodium vinckei petteri; test: Antimalarial activity against Plasmodium vinckei petteri 279BY infected peroral dosed Swiss mice (Mus musculus); format: functional; settings: po
[3] = test system: Plasmodium vinckei petteri; test: Antimalarial activity against Plasmodium vinckei petteri 279BY infected intraperitoneal dosed Swiss mice (Mus musculus); format: functional; settings: ip
[4] = test system: Plasmodium falciparum; test: microbe, parasite or virus in culture; settings: W2
Description: Antimalarial activity against Plasmodium falciparum W2

[5] = test system: Plasmodium falciparum; test: microbe, parasite or virus in culture; settings: FCM29
Description: Antimalarial activity against Plasmodium falciparum FCM29

Structure (SMILES) | IC50 [1] [nM] | ED50 [2] [mg/kg] | ED50 [3] [mg/kg] | IC50 [4] [nM] | IC50 [5] [nM]
C/C(=N\OS(C)(=O)=O)NCCCCCCCCCCCCN/C(C)=N/OS(C)(=O)=O | 12 | 42 | 4.7 | – | –
CCNC(=O)O/N=C(\C)NCCCCCCCCCCCCN/C(C)=N/OC(=O)NCC | 93 | > 90 | > 10 | – | –
CC(=N)NCCCCCCCCCCCCNC(C)=N | – | > 200 | 3.1 | 8.1 | 4
Cc1noc(=O)n1CCCCCCCCCCCCn1c(C)noc1=O | 7100 | 62 | > 9 | – | –
CC(=O)O/N=C(\C)NCCCCCCCCCCCCN/C(C)=N/OC(C)=O | 1800 | > 90 | 7.1 | – | –
C/C(=N\O)NCCCCCCCCCCCCN/C(C)=N/O | 310 | 90 | 9.2 | – | –
CCOP(=O)(OCC)O/N=C(\C)NCCCCCCCCCCCCN/C(C)=N/OP(=O)(OCC)OCC | 9.6 | > 90 | > 9 | – | –
C/C(=N\OC(=O)c1ccccc1)NCCCCCCCCCCCCN/C(C)=N/OC(=O)c1ccccc1 | 68.7 | > 90 | > 9 | – | –
C/C(=N\OC(=O)Nc1ccccc1)NCCCCCCCCCCCCN/C(C)=N/OC(=O)Nc1ccccc1 | 135 | > 90 | 10 | – | –
CO/N=C(\C)NCCCCCCCCCCCCN/C(C)=N/OC | 4350 | 110 | > 10 | – | –
